Measured values as given in US20250197420A1, “MACROCYCLIC COMPOUNDS, COMPOSITIONS, AND METHODS OF USING THEREOF” (Sionna Therapeutics Inc., priority 2022, published 2025).

These compounds were tested against T1, Purified recombinant NBD1 (Homo sapiens, UniProt P13569) (assay: Aggregation analysis using differential static light scattering (DSLS): thermal stability of NBD1). Conditions: NBD1 0.2 mg/ml; Tagg of compound well minus average Tagg of DMSO control wells.
T1 construct: Purified recombinant NBD1 was produced using previously described methods; made in house
T1 sequence (P13569 423-646 limits assumed): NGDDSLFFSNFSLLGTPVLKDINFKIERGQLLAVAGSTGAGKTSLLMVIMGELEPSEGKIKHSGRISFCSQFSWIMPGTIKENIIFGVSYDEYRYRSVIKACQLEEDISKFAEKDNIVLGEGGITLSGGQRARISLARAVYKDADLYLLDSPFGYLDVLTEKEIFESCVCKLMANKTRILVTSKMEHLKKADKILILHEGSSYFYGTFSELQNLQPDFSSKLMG
Type: binding
Procedure: Purified recombinant NBD1 was produced using previously described methods (A. Schmidt, J. L. Mendoza, P. J. Thomas (2011) Biochemical and Biophysical Approaches to Probe CFTR Structure (365-376) M. D. Amaral, K. Kunzelmann (eds.), Cystic Fibrosis, Methods in Molecular Biology 741, Springer Science+Business Media). The effect of test compounds on thermal stability of NBD1 was evaluated by differential static light scattering (DSLS) using the Harbinger Stargazer-384 instrument (Epiphyte Three, Toronto, Canada). Test compounds were dissolved and diluted to desired concentrations in 100% DMSO. The compounds or DMSO controls (100 nL) were stamped into wells of a […] low volume optical plate (Corning Inc., Corning, NY) using the Echo 555 acoustic liquid handler (Labcyte Inc., San Jose, CA).
NBD1 protein was diluted to 0.2 mg/ml in S200 buffer (50 mM Tris-HCl, 150 mM NaCl, 5 mM MgCl2, 2 mM ATP, 2 mM DTT, pH7.6) containing 1% glycerol. 10 uL of protein solution was aliquoted into the 384-well plate harboring the test compounds and 10 uL mineral oil was overlaid onto the protein solution, using the epMotion robotic liquid handler (Eppendorf North America, Hauppauge, NY). After placing into the Stargazer instrument, the plate was heated at 1° C. per minute to 70° C. Images were captured from 25° C. to 70° C. every 0.5° C. At the end of the experiment run, instrument software integrated image files and analyzed data automatically. A […] regression curve was generated for each well, representing the increase in light scattering over time. A temperature of aggregation (Tagg) was calculated based on the inflection point of the curve. To better compare data across experiments the average Tagg for DMSO control wells was calculated and subtracted from values for wells containing compounds to obtain a “ΔTagg” value. These ΔTagg values reflect stabilizing efficacy of the compounds. As set forth in Table 2 below, an ΔTagg value less than or equal to 5° C. is marked “A”; a value above 5° C. and less than or equal to 10° C. is marked “B”; a value greater than 10° C. and less than or equal to 25° C. is marked “C”.

Row | Compound | DSLS (ΔTagg)
1 | CN1CC(C)(C)COCC(C)(c2cccc(CCC(=O)O)c2)c2cnc([nH]2)-c2cc(ccc2F)Oc2c(F)cc3[nH]ccc3c2CCC1=O (racemic) [Compound 20A, 3-[3-(23,29-Difluoro-6,10,10,12-tetramethyl-13-oxo-8,25-dioxa-3,12,20,31-tetrazapentacyclo[24.3.1.12,5.016,24.017,21]hentriaconta-1(30),2,4,16,18,21,23,26,28-nonaen-6-yl)phenyl]propanoic acid] | C (a value greater than 10 °C and less than or equal to 25 °C is marked “C”)
2 | CCOC(=O)CCc1cccc(C2(C)CCCC(C)(C)CN(C)C(=O)CCc3c(c(F)cc4[nH]ccc34)Oc3ccc(F)c(c3)-c3ncc2[nH]3)c1 (single isomer, unassigned) [Compound 48A, ethyl 3-[3-(23,29-difluoro-6,10,10,12-tetramethyl-13-oxo-25-oxa-3,12,20,31-tetrazapentacyclo-[24.3.1.12,5.016,24.017,21]hentriaconta-1(30),2,4,16,18,21,23,26,28-nonaen-6-yl)phenyl]propanoate] | A (an ΔTagg value less than or equal to 5 °C is marked “A”)
3 | CCOC(=O)CCc1cccc(C2(C)CCCC(C)(C)CN(C)C(=O)CCc3c(c(F)cc4[nH]ccc34)Oc3ccc(F)c(c3)-c3ncc2[nH]3)c1 (single isomer, unassigned) [Compound 48B, ethyl 3-[3-(23,29-difluoro-6,10,10,12-tetramethyl-13-oxo-25-oxa-3,12,20,31-tetrazapentacyclo-[24.3.1.12,5.016,24.017,21]hentriaconta-1(30),2,4,16,18,21,23,26,28-nonaen-6-yl)phenyl]propanoate] | A (an ΔTagg value less than or equal to 5 °C is marked “A”)
4 | O=C(O)CCc1cccc(C2CCCCCNC(=O)CCc3c(c(F)cc4[nH]ccc34)Oc3ccc(F)c(c3)-c3ncc2[nH]3)c1 (centres unmarked) [Compound 1, 3-[3-(23,29-difluoro-13-oxo-25-oxa-3,12,20,31-tetrazapentacyclo[24.3.1.12,5.016,24.017,21]hentriaconta-1(30),2,4,16,18,21,23,26,28-nonaen-6-yl)phenyl]propanoic acid] | B (a value above 5 °C and less than or equal to 10 °C is marked “B”)
5 | O=C1CCc2c(c(F)cc3[nH]ccc23)Oc2ccc(F)c(c2)-c2ncc([nH]2)C(c2ccccc2)CCCCCN1 (centres unmarked) [Compound 2, 23,29-Difluoro-6-phenyl-25-oxa-3,12,20,31-tetrazapentacyclo[24.3.1.12,5.016,24.017,21]hentriaconta-1(30),2,4,16,18,21,23,26,28-nonaen-13-one] | C (a value greater than 10 °C and less than or equal to 25 °C is marked “C”)
6 | O=C(O)CCc1cccc(C2CCCCCCNC(=O)CCc3c(c(F)cc4[nH]cnc34)Oc3ccc(F)c(c3)-c3ncc2[nH]3)c1 (centres unmarked) [Compound 5, 3-[3-(24,30-Difluoro-14-oxo-26-oxa-3,13,19,21,32-pentazapentacyclo-[25.3.1.12,5.017,25.018,22]dotriaconta-1(31),2,4,17,19,22,24,27,29-nonaen-6-yl)phenyl]propanoic acid] | B (a value above 5 °C and less than or equal to 10 °C is marked “B”)
7 | O=C(O)CCc1cccc(C2CCCCCCNC(=O)Cc3c(c(F)cc4[nH]ccc34)Oc3ccc(F)c(c3)-c3ncc2[nH]3)c1 (centres unmarked) [Compound 6, 3-[3-(23,29-Difluoro-14-oxo-25-oxa-3,13,20,31-tetrazapentacyclo-[24.3.1.12,5.016,24.017,21]hentriaconta-1(30),2,4,16,18,21,23,26,28-nonaen-6-yl)phenyl]propanoic acid] | C (a value greater than 10 °C and less than or equal to 25 °C is marked “C”)
8 | CC(Cc1cccc(C2CCCCCNC(=O)CCc3c(c(F)cc4[nH]ccc34)Oc3ccc(F)c(c3)-c3ncc2[nH]3)c1)C(=O)O (centres unmarked) [Compound 7, 3-[3-(23,29-Difluoro-13-oxo-25-oxa-3,12,20,31-tetrazapentacyclo-[24.3.1.12,5.016,24.017,21]hentriaconta-1(30),2,4,16,18,21,23,26,28-nonaen-6-yl)phenyl]-2-methyl-propanoic acid] | C (a value greater than 10 °C and less than or equal to 25 °C is marked “C”)
9 | CN1Cc2c(c(F)cc3[nH]ccc23)Oc2ccc(F)c(c2)-c2ncc([nH]2)C(c2cccc(CCC(=O)O)c2)CCCCCCC1=O (centres unmarked) [Compound 9, 3-[3-(23,29-Difluoro-14-methyl-13-oxo-25-oxa-3,14,20,31-tetrazapentacyclo[24.3.1.12,5.016,24.017,21]hentriaconta-1(30),2,4,16(24),17(21),18,22,26,28-nonaen-6-yl)phenyl]propanoic acid] | C (a value greater than 10 °C and less than or equal to 25 °C is marked “C”)
10 | O=C(O)CCc1cccc(C2CCCC(=O)NCCCc3c(c(F)cc4[nH]ccc34)Oc3ccc(F)c(c3)-c3ncc2[nH]3)c1 (centres unmarked) [Compound 11, 3-[3-(22,28-Difluoro-10-oxo-24-oxa-3,11,19,30-tetrazapentacyclo[23.3.1.12,5.015,23.016,20]triaconta-1(28),2,4,15(23),16(20),17,21,25(29),26-nonaen-6-yl)phenyl]propanoic acid] | C (a value greater than 10 °C and less than or equal to 25 °C is marked “C”)
11 | CC1(C)CCCC(C)(c2cccc(CCC(=O)O)c2)c2cnc([nH]2)-c2cc(ccc2F)Oc2c(F)cc3[nH]ccc3c2CCC(=O)NC1 (centres unmarked) [Compound 12, 3-[3-(23,29-Difluoro-6,10,10-trimethyl-13-oxo-25-oxa-3,12,20,31-tetrazapentacyclo[24.3.1.12,5.016,24.017,21]hentriaconta-1(30),2,4,16,18,21,23,26,28-nonaen-6-yl)phenyl]propanoic acid] | C (a value greater than 10 °C and less than or equal to 25 °C is marked “C”)
12 | O=C1CCc2c(c(F)cc3[nH]ccc23)Oc2ccc(F)c(c2)-c2ncc([nH]2)C(c2ccccc2)CCCCS(=O)(=O)N1 (centres unmarked) [Compound 13, 23,29-Difluoro-11,11-dioxo-6-phenyl-25-oxa-116-thia-3,12,20,31-tetrazapentacyclo[24.3.1.12,5.016,24.017,21]hentriaconta-1(30),2,4,16,18,21,23,26,28-nonaen-13-one] | C (a value greater than 10 °C and less than or equal to 25 °C is marked “C”)
13 | CN1Cc2c(c(F)cc3[nH]ccc23)Oc2ccc(F)c(c2)-c2ncc([nH]2)C(C)(c2cccc(CCC(=O)O)c2)CCCCCCC1=O (centres unmarked) [Compound 14, 3-[3-(23,29-Difluoro-6,14-dimethyl-13-oxo-25-oxa-3,14,20,31-tetrazapentacyclo[24.3.1.12,5.016,24.017,21]hentriaconta-1(30),2,4,16(24),17(21),18,22,26,28-nonaen-6-yl)phenyl]propanoic acid] | C (a value greater than 10 °C and less than or equal to 25 °C is marked “C”)
14 | O=C(O)CCc1cccc(C2CCC(F)(F)CNC(=O)CCc3c(c(F)cc4[nH]ccc34)Oc3ccc(F)c(c3)-c3ncc2[nH]3)c1 (centres unmarked) [Compound 15, 3-[3-(9,9,22,28-Tetrafluoro-12-oxo-24-oxa-3,11,19,30-tetrazapentacyclo[23.3.1.12,5.015,23.016,20]triaconta-1(28),2,4,15(23),16(20),17,21,25(29),26-nonaen-6-yl)phenyl]propanoic acid] | C (a value greater than 10 °C and less than or equal to 25 °C is marked “C”)
15 | CC1(c2cccc(CCC(=O)O)c2)CCCCC(=O)NCCc2c(c(F)cc3[nH]ccc23)Oc2ccc(F)c(c2)-c2ncc1[nH]2 (centres unmarked) [Compound 16, 3-[3-(22,28-Difluoro-6-methyl-11-oxo-24-oxa-3,12,19,30-tetrazapentacyclo[23.3.1.12,5.015,23.016,20]triaconta-1(29),2,4,15,17,20,22,25,27-nonaen-6-yl)phenyl]propanoic acid] | C (a value greater than 10 °C and less than or equal to 25 °C is marked “C”)
16 | CC1(c2cccc(CCC(=O)O)c2)CCCC(=O)NCCCc2c(c(F)cc3[nH]ccc23)Oc2ccc(F)c(c2)-c2ncc1[nH]2 (centres unmarked) [Compound 17, 3-[3-(22,28-Difluoro-6-methyl-10-oxo-24-oxa-3,11,19,30-tetrazapentacyclo[23.3.1.12,5.015,23.016,20]triaconta-1(29),2,4,15,17,20,22,25,27-nonaen-6-yl)phenyl]propanoic acid] | C (a value greater than 10 °C and less than or equal to 25 °C is marked “C”)
17 | CN1CCCCCC(C)(c2cccc(CCC(=O)O)c2)c2cnc([nH]2)-c2cc(ccc2F)Oc2c(F)cc3[nH]ccc3c2CC(C)(C)C1=O (centres unmarked) [Compound 18, 3-[3-(23,29-Difluoro-6,12,14,14-tetramethyl-13-oxo-25-oxa-3,12,20,31-tetrazapentacyclo[24.3.1.12,5.016,24.017,21]hentriaconta-1(30),2,4,16,18,21,23,26,28-nonaen-6-yl)phenyl]propanoic acid] | A (an ΔTagg value less than or equal to 5 °C is marked “A”)
